Laboratory results taken from US6737383B1, “Herbicidal oxadiazolidines” (priority 1999, dated 2004).

Experiments:
[1] = test system: bedstraw; test: Test B pre/postemergence bedstraw; type: in vivo, Galium aparine
Procedure, shortened: (§1)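 Response is a visual 0-to-10 score relative to untreated plants, where 0 means no effect and 10 means complete control, taken twelve to sixteen days after application. Treatments went onto soil at planting and onto foliage of 1- to 4-leaf plants, using a surfactant-containing non-phytotoxic solvent.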

[2] = test system: blackgrass; test: Test B pre/postemergence blackgrass; type: in vivo, Alopecurus myosuroides
Procedure, shortened: as §1

[3] = test system: surinam grass; test: Test B pre/postemergence surinam grass; type: in vivo, Brachiaria decumbens
Procedure, shortened: as §1

[4] = test system: cocklebur; test: Test B pre/postemergence cocklebur; type: in vivo, Xanthium strumarium
Procedure, shortened: as §1

[5] = test system: corn; test: Test B pre/postemergence corn; type: in vivo, Zea mays
Procedure, shortened: as §1

[6] = test system: crabgrass; test: Test B pre/postemergence crabgrass; type: in vivo, Digitaria sanguinalis
Procedure, shortened: as §1

[7] = test system: giant foxtail; test: Test B pre/postemergence giant foxtail; type: in vivo, Setaria faberii
Procedure, shortened: as §1

[8] = test system: morningglory; test: Test B pre/postemergence morningglory; type: in vivo, Ipomoea hederacea
Procedure, shortened: as §1

[9] = test system: pigweed; test: Test B pre/postemergence pigweed; type: in vivo, Amaranthus retroflexus
Procedure, shortened: as §1

[10] = test system: rape; test: Test B pre/postemergence rape; type: in vivo, Brassica napus
Procedure, shortened: as §1

[11] = test system: soybean; test: Test B pre/postemergence soybean; type: in vivo, Glycine max
Procedure, shortened: as §1

[12] = test system: velvetleaf; test: Test B pre/postemergence velvetleaf; type: in vivo, Abutilon theophrasti
Procedure, shortened: as §1

[13] = test system: wheat; test: Test B pre/postemergence wheat; type: in vivo, Triticum aestivum
Procedure, shortened: as §1

[14] = test system: wild oat; test: Test B pre/postemergence wild oat; type: in vivo, Avena fatua
Procedure, shortened: as §1

[15] = test system: purple nutsedge; test: Test B pre/postemergence purple nutsedge; type: in vivo, Cyperus rotundus
Procedure, shortened: as §1

[16] = Postemergence, Rate 125 g/ha, scale of 0 to 10 where 0 is no effect and 10 is complete control
[17] = Preemergence, Rate 62 g/ha, scale 0 to 10 (0 no effect, 10 complete control)
[18] = Preemergence, Rate 125 g/ha, 0 is no effect, 10 is complete control
[19] = Preemergence, Rate 250 g/ha, scale 0 to 10, 0 is no effect, 10 is complete control
[20] = Preemergence, Rate 500 g/ha, scale 0 to 10 (0 no effect, 10 complete control)
[21] = Rate 62 g/ha, Postemergence, scale of 0 to 10 where 0 is no effect and 10 is complete control
[22] = Rate 250 g/ha, Postemergence, scale 0 to 10, 0 is no effect, 10 is complete control
[23] = Rate 500 g/ha, Postemergence, scale 0 to 10

## CC(C)N(C(=O)n1oc(=O)n(Cc2ccccc2Cl)c1=O)c1ccc(F)cc1 [Compound 140]
[1]; [16]
  Bedstraw plant response rating: 5
[1]; [17]
  Bedstraw plant response rating: 0
[1]; [18]
  Bedstraw plant response rating (0 to 10 scale): 0
[1]; [19]
  Bedstraw plant response rating: 0
[1]; [20]
  Bedstraw plant response rating: 0
[1]; [21]
  Bedstraw plant response rating: 4
[1]; [22]
  Plant response rating, Bedstraw: 5
[1]; Rate 500 g/ha, Postemergence, scale 0 to 10, 0 no effect, 10 complete control
  Bedstraw plant response rating: 6
[2]; [16]
  Blackgrass plant response rating: 3
[2]; [17]
  Blackgrass plant response rating: 0
[2]; [18]
  Blackgrass plant response rating (0 to 10 scale): 0
[2]; [19]
  Blackgrass plant response rating: 4
[2]; [20]
  Blackgrass plant response rating: 4
[2]; [21]
  Blackgrass plant response rating: 3
[2]; [22]
  Plant response rating, Blackgrass: 4
[2]; [23]
  Blackgrass plant response rating: 6
[3]; [16]
  B. signalgrass plant response rating: 0
[3]; [17]
  B. signalgrass plant response rating: 0
[3]; [18]
  B. signalgrass plant response rating (0 to 10 scale): 0
[3]; [19]
  B. signalgrass plant response rating: 0
[3]; [20]
  B. signalgrass plant response rating: 2
[3]; [21]
  B. signalgrass plant response rating: 0
[3]; [22]
  Plant response rating, B. signalgrass: 0
[3]; Rate 500 g/ha, Postemergence, scale of 0 to 10 where 0 is no effect and 10 is complete control
  B. signalgrass plant response rating: 1
[4]; [16]
  Cocklebur plant response rating: 0
[4]; [17]
  Cocklebur plant response rating: 0
[4]; [18]
  Cocklebur plant response rating (0 to 10 scale): 0
[4]; [19]
  Cocklebur plant response rating: 0
[4]; [20]
  Cocklebur plant response rating: 0
[4]; [21]
  Cocklebur plant response rating: 0
[4]; [22]
  Plant response rating, Cocklebur: 3
[4]; [23]
  Cocklebur plant response rating: 4
[5]; [16]
  Corn plant response rating: 0
[5]; [17]
  Corn plant response rating: 0
[5]; [18]
  Corn plant response rating (0 to 10 scale): 0
[5]; [19]
  Corn plant response rating: 0
[5]; [20]
  Corn plant response rating: 0
[5]; [21]
  Corn plant response rating: 0
[5]; [22]
  Plant response rating, Corn: 0
[5]; [23]
  Corn plant response rating: 0
[6]; [16]
  Crabgrass plant response rating: 1
[6]; [17]
  Crabgrass plant response rating: 4
[6]; [18]
  Crabgrass plant response rating (0 to 10 scale): 6
[6]; [19]
  Crabgrass plant response rating: 5
[6]; [20]
  Crabgrass plant response rating: 10
[6]; [21]
  Crabgrass plant response rating: 0
[6]; [22]
  Plant response rating, Crabgrass: 9
[6]; [23]
  Crabgrass plant response rating: 9
[7]; [16]
  Giant foxtail plant response rating: 1
[7]; [17]
  Giant foxtail plant response rating: 1
[7]; [18]
  Giant foxtail plant response rating (0 to 10 scale): 8
[7]; [20]
  Giant foxtail plant response rating: 10
[7]; [21]
  Giant foxtail plant response rating: 0
[7]; [22]
  Plant response rating, Giant foxtail: 4
[7]; [23]
  Giant foxtail plant response rating: 6
[8]; [16]
  Morningglory plant response rating: 8
[8]; [17]
  Morningglory plant response rating: 0
[8]; [18]
  Morningglory plant response rating (0 to 10 scale): 0
[8]; [19]
  Morningglory plant response rating: 0
[8]; [20]
  Morningglory plant response rating: 0
[8]; [21]
  Morningglory plant response rating: 4
[8]; [22]
  Plant response rating, Morningglory: 8
[8]; [23]
  Morningglory plant response rating: 8
[9]; [16]
  Redroot pigweed plant response rating: 1
[9]; [17]
  Redroot pigweed plant response rating: 0
[9]; [18]
  Redroot pigweed plant response rating (0 to 10 scale): 0
[9]; [19]
  Redroot pigweed plant response rating: 0
[9]; [20]
  Redroot pigweed plant response rating: 0
[9]; [21]
  Redroot pigweed plant response rating: 0
[9]; [22]
  Plant response rating, Redroot pigweed: 2
[9]; [23]
  Redroot pigweed plant response rating: 3
[10]; [16]
  Rape plant response rating: 0
[10]; [17]
  Rape plant response rating: 0
[10]; [18]
  Rape plant response rating (0 to 10 scale): 0
[10]; [19]
  Rape plant response rating: 0
[10]; [20]
  Rape plant response rating: 0
[10]; [21]
  Rape plant response rating: 0
[10]; [22]
  Plant response rating, Rape: 1
[10]; [23]
  Rape plant response rating: 2
[11]; [16]
  Soybean plant response rating: 3
[11]; [17]
  Soybean plant response rating: 0
[11]; [18]
  Soybean plant response rating (0 to 10 scale): 0
[11]; [19]
  Soybean plant response rating: 0
[11]; [20]
  Soybean plant response rating: 1
[11]; [21]
  Soybean plant response rating: 3
[11]; [22]
  Plant response rating, Soybean: 3
[11]; [23]
  Soybean plant response rating: 5
[12]; [16]
  Velvetleaf plant response rating: 0
[12]; [17]
  Velvetleaf plant response rating: 0
[12]; [18]
  Velvetleaf plant response rating (0 to 10 scale): 0
[12]; [19]
  Velvetleaf plant response rating: 0
[12]; [20]
  Velvetleaf plant response rating: 0
[12]; [21]
  Velvetleaf plant response rating: 0
[12]; [22]
  Plant response rating, Velvetleaf: 0
[12]; [23]
  Velvetleaf plant response rating: 2
[13]; [16]
  Wheat plant response rating: 0
[13]; [17]
  Wheat plant response rating: 0
[13]; [18]
  Wheat plant response rating (0 to 10 scale): 0
[13]; [19]
  Wheat plant response rating: 0
[13]; [20]
  Wheat plant response rating: 0
[13]; [21]
  Wheat plant response rating: 0
[13]; [22]
  Plant response rating, Wheat: 0
[13]; [23]
  Wheat plant response rating: 0
[14]; [16]
  Wild oats plant response rating: 0
[14]; [17]
  Wild oats plant response rating: 0
[14]; [18]
  Wild oats plant response rating (0 to 10 scale): 0
[14]; [19]
  Wild oats plant response rating: 1
[14]; [20]
  Wild oats plant response rating: 1
[14]; [21]
  Wild oats plant response rating: 0
[14]; [22]
  Plant response rating, Wild oats: 0
[14]; [23]
  Wild oats plant response rating: 1
[15]; [16]
  Nutsedge plant response rating: 0
[15]; [17]
  Nutsedge plant response rating: 0
[15]; [18]
  Nutsedge plant response rating (0 to 10 scale): 0
[15]; [19]
  Nutsedge plant response rating: 0
[15]; [20]
  Nutsedge plant response rating: 0
[15]; [21]
  Nutsedge plant response rating: 0
[15]; [22]
  Plant response rating, Nutsedge: 0
[15]; [23]
  Nutsedge plant response rating: 0
